Results: US20100092456A1, “METHODS OF TREATMENT” (priority 2006, published 2010)

What was measured:
[1] = biological target: PIKfyve (Homo sapiens, UniProt Q9Y2I7); conditions: background statement; cited from earlier work
[2] = system: PtdIns4P and PtdIns5P in the CEF of MEL cells; assay: Mass assay of PtdIns4P and PtdIns5P in the CEF of MEL cells with or without UV irradiation; type: cell-based, Murine; conditions: MEL cells preincubated with wortmannin (200 nM and 5 μM) or curcumin (100 μM); 200 J/m UV; CEF after 30 minutes
Experimental: (§1) D) MEL cells were preincubated with either vehicle (DMSO) or wortmannin (200 nM and 5 μM) were irradiated with 200 J/m of UV light. After 30 minutes the CEF was isolated and a mass assay was used to determine the levels of PtdIns4P and PtdIns5P (expressed as % of control non-irradiated cells. The results are calculated from 3 independent experiments).
as §1, with “E)” for “D)”, “(ethanol)” for “(DMSO)”, “curcumin (100” for “wortmannin (200 nM and 5”, “irradiation.” for “light.”, “control, non curcumin-treated nor non UV-irradiated” for “control non-irradiated”
C) MEL cells were transiently transfected to express EGFP, EGFP-type II b PIP kinase and EGFP-IpgD/IpgE. In addition MEL cells were transfected with pSuper-IIβRNAi. […] A mass assay was used to determine the level of PtdIns5P (expressed as % of control non-irradiated cells. The results are calculated from 3 independent experiments). […]
MEL cells were washed, twice in ice cold PBS before their fractionation using a detergent-free hypotonic buffer. […] The protein content of all fractions was determined using the Bradford reagent (BioRad). PtdIns4P and PtdIns5P were measured using in vitro mass assays employing recombinant type I and type II PIP kinases, respectively. […]

[3] = system: MEL cells; assay: MEL cell viability and cell cycle profile; type: cell-based, Murine
Experimental: Ethanol fixed cells were incubated with prodium iodide (20 μg/ml) and RNAse (10 μg/ml) before cell cycle analysis by flow cytometry. Proteins were analysed by standard western blotting procedures employing the following antibodies: anti-tubulin and anti-flag (both from Sigma), anti-actin (Chemicon International), anti-histone 4 (Upstate Biotechnology), anti-phospho p54, anti-phospho p46, anti-phospho p38, total p54, total p46 and total p38 (all from Cell Signalling Technology) anti-ING2, anti EGFP (Clontech), anti-type II β PIP kinase, anti-GST and anti-myc (both generated in house).
To investigate the sub-nuclear localisation of UV-induced nuclear PtdInsPs, we fractionated nuclei to generate nucleoplasm (containing nuclear membranes and soluble nuclear material) and the chromatin enriched fraction (CEF) (FIG. 1c inset). […] Thus, the PtdInsP pool present in the CEF is a target for regulation in response to cellular stress.

[4] = system: ING2; assay: Western blot of endogenous ING2 associated with the CEF of MEL cells; type: cell-based, Murine; conditions: MEL cells; 200 J/m UV; NAC 5 mM 4 hours, wortmannin 200 nM and 5 μM, curcumin 100 μM
Experimental: FIG. 4. A) Exponentially growing MEL cells were irradiated with either 200 J/m of UV light or 10 Gy of gamma radiation. After 30 minutes the CEF was isolated and the subjected to SDS-PAGE followed by transfer of the separated proteins to a nitrocellulose membrane. Western blotting for endogenous ING2 and histone 4 proteins was performed. Representative western blots are shown. B) Exponentially growing MEL cells were incubated in the absence or presence of N-acetyl cysteine (NAC) (5 mM) for 4 hours prior to a control irradiation or exposed to 200 J/m of UV light before the isolation of the CEF. Differentiated MEL cells were incubated in the absence or presence of H2O2 (500 μM) for 15 minutes prior to the isolation of the CEF. Proteins in the CEF were subjected to SDS-PAGE followed by transfer to a nitrocellulose membrane. Western blotting for endogenous ING2 and histone 4 proteins was performed. Representative western blots are shown. C) MEL cells were preincubated with either vehicle, wortmannin (200 nM and 5 μM) or curcumin (100 μM) were irradiated with 200 J/m of UV light. After 30 minutes the CEF was isolated and proteins were subjected to SDS-PAGE followed by transfer to a nitrocellulose membrane. Western blotting for endogenous ING2 and histone 4 proteins was performed. Representative western blots are shown. D) The CEF from transiently transfected MEL cells with either pSuper or pSuper-IIβRNAi was prepared. Proteins in the CEF were subjected to SDS-PAGE followed by transfer to a nitrocellulose membrane. […] Proteins were analysed by standard western blotting procedures employing the following antibodies: anti-tubulin and anti-flag (both from Sigma), anti-actin (Chemicon International), anti-histone 4 (Upstate Biotechnology), anti-phospho p54, anti-phospho p46, anti-phospho p38, total p54, total p46 and total p38 (all from Cell Signalling Technology) anti-ING2, anti EGFP (Clontech), anti-type II β PIP kinase, anti-GST and anti-myc (both generated in house).

PIKfyve, sequence (Q9Y2I7 whole entry, species assumed): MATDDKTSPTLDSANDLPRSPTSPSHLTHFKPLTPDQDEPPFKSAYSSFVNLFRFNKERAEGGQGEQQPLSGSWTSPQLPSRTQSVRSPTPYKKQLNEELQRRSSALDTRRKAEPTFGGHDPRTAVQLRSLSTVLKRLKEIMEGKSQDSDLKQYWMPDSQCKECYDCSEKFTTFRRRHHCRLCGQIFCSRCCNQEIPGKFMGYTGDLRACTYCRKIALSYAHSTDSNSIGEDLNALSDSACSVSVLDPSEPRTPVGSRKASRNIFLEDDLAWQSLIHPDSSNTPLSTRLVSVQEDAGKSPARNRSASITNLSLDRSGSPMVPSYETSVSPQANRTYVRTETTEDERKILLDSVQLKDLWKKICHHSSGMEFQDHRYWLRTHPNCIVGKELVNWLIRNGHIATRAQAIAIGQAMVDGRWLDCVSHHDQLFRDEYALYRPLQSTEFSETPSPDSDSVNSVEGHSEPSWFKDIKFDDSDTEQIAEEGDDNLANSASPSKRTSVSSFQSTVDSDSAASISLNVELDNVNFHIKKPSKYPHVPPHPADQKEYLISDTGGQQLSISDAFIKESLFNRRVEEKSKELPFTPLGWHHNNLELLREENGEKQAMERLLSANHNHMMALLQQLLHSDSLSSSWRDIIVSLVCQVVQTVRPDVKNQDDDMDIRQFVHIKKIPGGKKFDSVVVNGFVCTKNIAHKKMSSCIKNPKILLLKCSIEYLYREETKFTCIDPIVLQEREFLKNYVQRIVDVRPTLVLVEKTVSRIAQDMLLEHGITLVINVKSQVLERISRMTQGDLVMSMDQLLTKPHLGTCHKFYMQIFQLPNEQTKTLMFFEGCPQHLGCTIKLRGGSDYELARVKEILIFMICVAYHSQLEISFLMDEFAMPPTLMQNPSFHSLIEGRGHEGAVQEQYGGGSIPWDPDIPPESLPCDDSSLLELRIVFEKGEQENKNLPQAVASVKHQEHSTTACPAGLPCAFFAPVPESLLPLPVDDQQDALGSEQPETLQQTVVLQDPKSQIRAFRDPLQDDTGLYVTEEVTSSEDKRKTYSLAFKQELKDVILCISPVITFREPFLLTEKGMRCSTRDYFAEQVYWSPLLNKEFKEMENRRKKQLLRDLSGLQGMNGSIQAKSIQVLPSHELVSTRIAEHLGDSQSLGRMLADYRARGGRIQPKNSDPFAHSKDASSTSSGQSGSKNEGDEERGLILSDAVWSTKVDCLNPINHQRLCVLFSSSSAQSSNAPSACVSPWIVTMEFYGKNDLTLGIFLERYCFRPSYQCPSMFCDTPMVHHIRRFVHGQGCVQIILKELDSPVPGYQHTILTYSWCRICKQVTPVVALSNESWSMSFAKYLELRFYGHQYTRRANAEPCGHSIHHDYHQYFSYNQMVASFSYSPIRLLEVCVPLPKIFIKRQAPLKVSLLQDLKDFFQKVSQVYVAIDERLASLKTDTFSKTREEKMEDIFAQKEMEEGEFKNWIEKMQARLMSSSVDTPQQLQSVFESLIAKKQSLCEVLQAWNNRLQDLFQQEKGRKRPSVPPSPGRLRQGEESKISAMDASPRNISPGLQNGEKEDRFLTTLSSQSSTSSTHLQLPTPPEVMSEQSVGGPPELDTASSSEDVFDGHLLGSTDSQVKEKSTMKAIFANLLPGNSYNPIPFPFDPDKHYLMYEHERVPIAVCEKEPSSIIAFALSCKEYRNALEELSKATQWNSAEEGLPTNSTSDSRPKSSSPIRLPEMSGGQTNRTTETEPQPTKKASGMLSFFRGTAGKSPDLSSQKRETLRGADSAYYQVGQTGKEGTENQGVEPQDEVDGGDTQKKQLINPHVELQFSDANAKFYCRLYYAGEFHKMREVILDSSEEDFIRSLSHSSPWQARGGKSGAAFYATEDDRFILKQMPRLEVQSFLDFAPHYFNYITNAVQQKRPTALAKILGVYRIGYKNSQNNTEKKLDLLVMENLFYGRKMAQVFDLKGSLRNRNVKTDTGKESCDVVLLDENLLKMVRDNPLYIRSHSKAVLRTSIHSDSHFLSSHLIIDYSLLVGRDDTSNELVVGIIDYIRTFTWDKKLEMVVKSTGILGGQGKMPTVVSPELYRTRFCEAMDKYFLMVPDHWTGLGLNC

COc1cc(/C=C/C(=O)CC(=O)/C=C/c2ccc(O)c(OC)c2)ccc1O [curcumin]
inhibition of PIKfyve [1]: able to inhibit | UV light-induced accumulation of PtdIns4P [2]: inhibited | UV light-induced accumulation of PtdIns5P [2]: inhibited | effect on MEL cell viability [3]: no effect | effect on the cell cycle profile ([3]; MEL cells, compound alone): no effect | UV-induced translocation of endogenous ING2 to the CEF [4]: completely inhibited
